Data on six molecules can be found in US7285221B2, “Composition for preventing of slime and method for preventing slime” (Kurita Water Industries, Ltd., priority 2002, dated 2007).

One data set concerns slime. The experiment in a line: Attachment of slime on a synthetic rubber test board in circulating test water apparatus. Particulars: 120 hours after start of test; agent concentrations as in each example. On the procedure: (§1) From a water tank 1 holding 15 liters of water, test water was passed at a rate of 10 liters/minute through a column 3 and returned to the water tank 1 using a circulating pump 2. In the column 3, a test board made of a synthetic rubber and having a surface area of 40 cm^2 was disposed to a supporting pole to measure the amount of attachment of slime.
(§2) In a water tank 4, test liquid for supplement prepared in advance was stored and transferred into the water tank 1 at a rate of 5 ml/minute using a pump for an agent 5. The test liquid for supplement was prepared by adding calcium chloride and sodium hydrogencarbonate to city water, which was dechlorinated by passing through a column of active carbon, in amounts such that the calcium hardness was 150 mg CaCO3/liter and the acid consumption (pH 4.8) was 150 mg CaCO3/liter. As the nutrient for microorganisms, 100 mg/liter of citric acid was added. To the obtained solution, a test agent was added and pH was adjusted at 8.5 by adding sodium hydroxide.
(§3) When the test was started, dirt was added into the water in the water tank 1 in an amount such that the turbidity of the water was 50. As the dirt, a concentrated liquid of reverse washing discharged from filters for industrial water in Chiba area was used. The dirt was added into the water tank 1 in an amount corresponding to a turbidity of 25 at each time when 48 hours and 96 hours had passed after the start of the test.
(§4) The number of microorganisms in the circulating water and the turbidity of the circulating water were measured 48 hours, 72 hours and 120 hours after the start of the test. The test board of synthetic rubber attached to the column 3 was taken out 120 hours after the start of the test. After slime attached to the test board was cleaved and dried to the constant weight at 105° C., the weight of the slime was measured and the amount of the attached slime was obtained.
(§5) As part A of the test agent, a mixed liquid composed of 40% by weight of an aqueous solution of sodium hypochlorite having a concentration of effective chlorine of 12% by weight, 8% by weight of a sulfamic acid, 10% by weight of sodium hydroxide and 42% by weight of water was used. This mixed liquid is a solution conventionally used as the agent for preventing formation of slime. As part B of the agent, an anionic polymer or a phosphonic acid was used.

The next data set relates to sludge. Kind of data set: Accumulation of sludge at the bottom of the water tank of the circulating test water apparatus. Particulars: 120 hours after start of test; agent concentrations as in each example. On the procedure: as §1, §2, §3
A valve 6 at a lower portion of the water tank 1 was opened and the water in the water tank 1 was removed 120 hours after the start of the test. The valve 6 was then closed again. Into the water tank 1, 200 ml of pure water was added and dirt accumulated at the lower portion of the water tank was suspended using a brush. The valve was opened and the formed suspension was taken out. After the dirt was separated using a centrifuge and dried to the constant weight at 105° C., the weight of the dirt was measured and the amount of accumulated sludge was obtained.
as §5

Data set [1] concerns microorganisms in the circulating water. The experiment in a line: Number of microorganisms in the circulating water. On the procedure:
as §1, §2, §3, §4, §5

Data set [2] is described as follows: Storage stability of effective chlorine in the composition at 40° C. shielded from light. Format: physicochemical. Particulars: for concentration of effective chlorine remained: pH 14; for Fraction of remaining effective chlorine: pH of composition 14, 40° C. On the procedure: A composition composed of 40% by weight of an aqueous solution of sodium hypochlorite having a concentration of effective chlorine of 12% by weight, 8% by weight of sulfamic acid, 10% by weight of an anionic polymer or a phosphonic acid and the remaining amount of sodium hydroxide and water was prepared. pH of the composition was adjusted by changing the amount of sodium hydroxide. The prepared composition was stored in a vessel kept at the constant temperature of 40° C. and shielded from light. The concentration of the effective chlorine was measured after the composition was stored for a prescribed time.
For the measurement of the concentration of the effective chlorine, a residual chlorine meter manufactured by HACH Company and a reagent specific for this measurement were used. BELCREN (the weight-average molecular weight: 2730) manufactured by GREAT LAKES CHEMICAL Company was used as the polymaleic acid. ISOBAN (the weight-average molecular weight: 10,800) manufactured by KURARAY Co., Ltd. was used as the maleic acid-isobutylene copolymer. AQUARICK GL (the weight-average molecular weight: 10,700) manufactured by NIPPON SHOKUBAI Co., Ltd. was used as the acrylic acid-hydroxyallyloxypropanesulfonic acid copolymer. DEQUEST 2010 manufactured by MONSANTO Company was used as 1-hydroxyethylidene-1,1-diphosphonic acid. BAYHIBIT AM manufactured by BAYER Company was used as 2-phosphonobutane-1,2,4-tricarboxylic acid. BELCORE 575 manufactured by GREAT LAKES Company was used as hydroxyphosphonoacetic acid.

For `CC(O)(P(=O)(O)O)P(=O)(O)O` [Comparative Example 9, 1-hydroxyethylidene-1,1-diphosphonic acid], the “Attachment of slime amount” value in the data set on slime turned out to be 16.1 mg/dm^2. Further, the “Accumulation of sludge amount” value in the data set on sludge turned out to be 39.6 mg. In addition, the “Number of microorganisms in circulating water” value (from here on “Number … in circulating water”) in data set [1] (after 48 hours) was determined as 1.3e+06 mL⁻¹; in data set [1] (after 72 hours), 490000 mL⁻¹; in data set [1] (after 120 hours), 680000 mL⁻¹.

`O=C(O)C(O)P(=O)(O)O` (stereo not shown) [Comparative Example 13, hydroxy-phosphonoacetic acid]: the “Attachment of slime amount” value in the data set on slime worked out at 16.5 mg/dm^2. In the data set on sludge, the “Accumulation of sludge amount” value turned out to be 51.1 mg. For the same molecule, the figures for the “Number … in circulating water” value in data set [1] (after 48 hours), in data set [1] (after 72 hours) and in data set [1] (after 120 hours) were 660000 mL⁻¹, 350000 mL⁻¹ and 490000 mL⁻¹, respectively.

On to `OCl` [sodium hypochlorite], for which the entries for the “concentration of effective chlorine remained” value in data set [2] (after 3 month) and in data set [2] (after one month) were “about 20%” and “about 60%”, respectively. For the same molecule, the entries for the “Fraction of remaining effective chlorine” value in data set [2] (after 7 days), in data set [2] (after 30 days) and in data set [2] (after 90 days) were 91%, 59% and 18%, respectively.

In the case of `O=C(O)CCC(CC(=O)O)(C(=O)O)P(=O)(O)O` (stereo not shown) [Comparative Example 10, 2-phosphonobutane-1,2,4-tricarboxylic acid], the “Attachment of slime amount” value in the data set with slime is on record as 19.2 mg/dm^2. Besides, the “Accumulation of sludge amount” value in the data set on sludge was found to be 55.5 mg. Also, the “Number … in circulating water” value in data set [1] (after 48 hours) was found to be 670000 mL⁻¹; in data set [1] (after 72 hours), 840000 mL⁻¹; in data set [1] (after 120 hours), 420000 mL⁻¹.

Turning to `CC(O)(P(=O)(O)O)P(=O)(O)O` [Comparative Example 8, 1-hydroxyethylidene-1,1-diphosphonic acid], in the data set on slime, the “Attachment of slime amount” value worked out at 17.3 mg/dm^2. In addition, the “Accumulation of sludge amount” value with sludge amounted to 42.8 mg. For the same molecule, the “Number … in circulating water” value in data set [1] (after 48 hours) came to 720000 mL⁻¹; in data set [1] (after 72 hours), 550000 mL⁻¹; in data set [1] (after 120 hours), 490000 mL⁻¹. Also, the “number of microorganisms in the circulating water, in words” value in data set [1] (comparison in words, no time point) is “not substantially different”.

`O=C(O)CCC(CC(=O)O)(C(=O)O)P(=O)(O)O` (stereo not shown) [Comparative Example 11, 2-phosphonobutane-1,2,4-tricarboxylic acid]: the “Attachment of slime amount” value in the data set with slime is 16.5 mg/dm^2. Besides, the “Accumulation of sludge amount” value in the data set on sludge is reported as 48.8 mg. Moreover, the “Number … in circulating water” value in data set [1] (after 48 hours) was found to be 3.8e+06 mL⁻¹; in data set [1] (after 72 hours), 890000 mL⁻¹; in data set [1] (after 120 hours), 760000 mL⁻¹.
